Assays:
[1] = system: other kinases examined of the SRC family; assay: Kinase selectivity panel by Cerep
Pharmacokinetics in rats = assay type: in vivo, rat; conditions: rat, in vivo, po, 1 mg/kg orally
FLT-4 = FLT-4 (Homo sapiens, UniProt P35916); assay: Kinase selectivity panel by Cerep; conditions: read-out: inhibition of FLT-4
HCK = HCK (Homo sapiens, UniProt P08631); assay: Kinase selectivity panel by Cerep
CDK2 = CDK2 (Homo sapiens, UniProt P24941); assay: Kinase selectivity panel by Cerep; conditions: read-out: inhibition of CDK2
[2] = system: remaining kinases examined (standard panel of about 100 human kinase assay); assay: Kinase selectivity panel by Cerep
FYN = FYN (Homo sapiens, UniProt P06241); assay: Kinase selectivity panel by Cerep
Chain of FYN (P06241 whole entry): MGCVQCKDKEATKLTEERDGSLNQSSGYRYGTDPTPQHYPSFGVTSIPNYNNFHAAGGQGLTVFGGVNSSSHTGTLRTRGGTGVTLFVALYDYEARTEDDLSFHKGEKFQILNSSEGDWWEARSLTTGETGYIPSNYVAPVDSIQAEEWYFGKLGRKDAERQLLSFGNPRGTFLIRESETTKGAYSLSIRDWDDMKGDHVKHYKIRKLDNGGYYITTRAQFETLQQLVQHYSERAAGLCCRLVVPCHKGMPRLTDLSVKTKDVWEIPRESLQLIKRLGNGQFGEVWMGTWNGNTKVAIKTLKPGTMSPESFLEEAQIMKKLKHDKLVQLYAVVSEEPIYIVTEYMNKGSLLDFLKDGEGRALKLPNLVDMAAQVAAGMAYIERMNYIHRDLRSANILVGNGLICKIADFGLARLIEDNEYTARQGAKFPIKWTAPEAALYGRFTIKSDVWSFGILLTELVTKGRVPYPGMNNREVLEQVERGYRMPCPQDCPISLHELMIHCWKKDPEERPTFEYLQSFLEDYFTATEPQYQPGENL

[3] = system: NF-kB activation in JB6 CI 41-5a (P+) cells; assay: Gene reporter (GR) assay, NF-kB luciferase after TNFα stimulation; assay type: cell-based, murine; conditions: Mus musculus; 1 h pre-treatment, 2 ng/ml TNFα for 4 h; read-out: IC50(nM) GR Inhibition
Excerpt: To determine if the compounds of the invention were active also in a cellular model, a gene reporter assay was established in a cell line (JB6 CI 41-5a (P+)) know to activate Fyn kinase via an inflammatory stimuli (TNFα). GR assay measures the activation of the nuclear transcription factor NF-kB, situated down-stream the Fyn activation pathway. Products active in this analysis has to penetrate in the cell and inhibit the activation pathway of NF-kB.
The murine epithelial cell line JB6 CI 41-5a (P+) (ATCC® Cat. # CRL-2010) was stably transfected with the pGL4.32[luc2P/NFkB-RE/Hygro] vector (Promega). Clonal selection was achieved by limiting dilution in MEM (+Earle's BSS+1.5 g/l sodium bicarbonate+0.1 mM NEAA)+GlutaMAX™-I, +1 mM sodium pyruvate, +5% FBS+80 μg/ml Hygromycin B. The clones were tested for their response to TNFα stimulus. The obtained transfected cells (JB6(P+) NFkB-RE-luc2P T3-C10) contained a firefly luciferase gene (luc2P) under the control of minimal TATA promoter with multiple Nuclear Factor-kB response elements (NFkB-REs). These NFkB-REs are DNA binding sequences for the NF-kB transcription factor.
JB6(P+) NFkB-RE-luc2P T3-C10 cells were used for the analysis of NF-kB activity modulation, after TNFα stimulation, by Fyn-inhibitors (Hwang et al.; Biochem. Pharmacol. 2009, 77 (7):1213-22).
6000 cells/well were plated in a 96× well plate. After 24 h new medium without antibiotics was given. After further 24 h the cells were pre-treated with the different compounds for 1 h and then stimulated with 2 ng/ml TNFα for 4 h. In each experiments two positive standards were always used, and each tested condition was analyzed in quadruplicate.
The luciferase analysis was performed with ONE-Glo™+ToxLuciferase Reporter and Cell Viability Assay kit (Promega). This assay combined luciferase assay chemistry with a cell viability marker to better understand reporter gene expression in the context of cell health. The assay uses a two-step process. The first part of the assay was a non-lytic fluorescence assay (CellTiter-Fluor™ Cell Viability Assay) that measured the relative number of live cells in a culture population, as it measures a conserved and constitutive protease activity within live cells. The live-cell protease activity was restricted to intact viable cells and was measured using a fluorogenic, cell-permeant peptide substrate (glycyl-phenylalanyl-aminofluorocoumarin; GF-AFC). The generated fluorescent signal, proportional to the number of living cells, was measured with EnVision microplate reader (PerkinElmer) using an excitation wavelength of 400 nm and emission wavelength of 500 nm.
The second part of the assay uses the ONE-Glo™ Luciferase Assay System to quantify firefly luciferase reporter gene expression. The ONE-Glo™ Assay contained a fluoro-luciferin substrate, more tolerant to sample components than standard luciferase assay reagents. Luminescence was measured with EnVision microplate reader (PerkinElmer).
Compounds of Formula (I) were tested for their capacity to penetrate into the cell and inhibit the activation pathway of NF-kB.

LCK = LCK (Homo sapiens, UniProt P06239); assay: Kinase selectivity panel by Cerep
Chain of LCK (P06239 whole entry): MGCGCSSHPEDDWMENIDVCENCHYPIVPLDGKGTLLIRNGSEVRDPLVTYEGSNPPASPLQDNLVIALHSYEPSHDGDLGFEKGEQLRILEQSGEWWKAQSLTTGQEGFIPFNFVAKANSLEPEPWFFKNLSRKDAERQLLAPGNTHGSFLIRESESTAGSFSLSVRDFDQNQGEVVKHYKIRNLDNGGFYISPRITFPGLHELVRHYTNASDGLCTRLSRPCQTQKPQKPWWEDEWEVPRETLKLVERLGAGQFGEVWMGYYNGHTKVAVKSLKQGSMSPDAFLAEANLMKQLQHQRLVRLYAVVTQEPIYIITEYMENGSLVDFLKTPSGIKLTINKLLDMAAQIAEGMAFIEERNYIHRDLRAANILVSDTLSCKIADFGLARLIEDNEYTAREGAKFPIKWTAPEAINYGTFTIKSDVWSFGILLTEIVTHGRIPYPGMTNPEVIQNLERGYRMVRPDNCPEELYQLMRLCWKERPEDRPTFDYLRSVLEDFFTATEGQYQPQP

Chain of FLT-4 (P35916 25-1363): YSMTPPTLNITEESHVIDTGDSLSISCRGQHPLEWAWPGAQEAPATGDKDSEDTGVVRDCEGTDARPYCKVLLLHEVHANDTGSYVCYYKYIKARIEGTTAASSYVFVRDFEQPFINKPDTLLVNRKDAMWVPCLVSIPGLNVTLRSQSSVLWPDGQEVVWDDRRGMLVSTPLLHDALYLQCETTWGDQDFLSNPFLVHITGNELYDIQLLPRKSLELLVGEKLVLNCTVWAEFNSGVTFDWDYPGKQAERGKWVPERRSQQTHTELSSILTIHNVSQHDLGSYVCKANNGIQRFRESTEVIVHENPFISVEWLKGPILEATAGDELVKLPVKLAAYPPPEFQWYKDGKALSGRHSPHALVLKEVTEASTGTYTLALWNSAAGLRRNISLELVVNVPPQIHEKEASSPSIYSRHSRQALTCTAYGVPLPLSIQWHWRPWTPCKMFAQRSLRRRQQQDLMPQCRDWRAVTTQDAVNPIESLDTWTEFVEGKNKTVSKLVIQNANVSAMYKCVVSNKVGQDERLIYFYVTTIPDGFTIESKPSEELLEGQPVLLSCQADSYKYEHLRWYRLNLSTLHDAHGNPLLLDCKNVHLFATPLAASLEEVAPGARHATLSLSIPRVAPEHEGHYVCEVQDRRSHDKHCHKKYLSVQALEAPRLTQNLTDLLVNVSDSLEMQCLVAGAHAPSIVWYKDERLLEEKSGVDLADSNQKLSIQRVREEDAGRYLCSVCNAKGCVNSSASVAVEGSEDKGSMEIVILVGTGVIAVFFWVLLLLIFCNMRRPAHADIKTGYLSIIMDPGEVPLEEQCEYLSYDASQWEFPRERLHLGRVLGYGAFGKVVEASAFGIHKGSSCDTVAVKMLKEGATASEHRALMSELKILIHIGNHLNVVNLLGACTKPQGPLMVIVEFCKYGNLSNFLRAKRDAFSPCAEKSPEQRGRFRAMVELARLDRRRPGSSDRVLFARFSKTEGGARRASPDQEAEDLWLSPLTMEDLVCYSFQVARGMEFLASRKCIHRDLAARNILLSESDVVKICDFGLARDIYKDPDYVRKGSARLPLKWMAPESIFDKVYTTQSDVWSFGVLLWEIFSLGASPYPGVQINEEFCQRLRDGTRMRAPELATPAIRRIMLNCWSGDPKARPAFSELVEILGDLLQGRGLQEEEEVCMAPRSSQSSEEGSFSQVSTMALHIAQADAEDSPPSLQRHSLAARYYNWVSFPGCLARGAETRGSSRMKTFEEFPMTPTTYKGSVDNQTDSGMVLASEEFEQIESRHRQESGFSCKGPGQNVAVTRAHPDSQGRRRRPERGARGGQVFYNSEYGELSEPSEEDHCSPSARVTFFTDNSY
Chain of HCK (P08631 whole entry): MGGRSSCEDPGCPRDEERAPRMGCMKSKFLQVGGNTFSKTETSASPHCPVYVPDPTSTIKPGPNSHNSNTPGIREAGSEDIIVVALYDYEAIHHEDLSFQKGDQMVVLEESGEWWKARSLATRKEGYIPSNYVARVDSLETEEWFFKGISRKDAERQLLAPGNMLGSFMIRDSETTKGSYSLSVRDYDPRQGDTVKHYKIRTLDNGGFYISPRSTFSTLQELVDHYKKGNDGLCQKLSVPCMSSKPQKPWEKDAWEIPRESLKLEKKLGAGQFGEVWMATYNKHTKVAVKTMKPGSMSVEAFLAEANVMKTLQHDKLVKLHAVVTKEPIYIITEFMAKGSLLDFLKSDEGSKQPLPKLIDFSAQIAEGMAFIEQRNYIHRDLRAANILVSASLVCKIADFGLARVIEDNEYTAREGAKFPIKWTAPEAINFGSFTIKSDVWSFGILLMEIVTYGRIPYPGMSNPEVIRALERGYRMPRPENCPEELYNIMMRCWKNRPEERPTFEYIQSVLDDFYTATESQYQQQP

## O=C(Nc1ccc(CN2CCN(c3nccc(Nc4cc(C5CC5)[nH]n4)n3)CC2)cc1)c1ccccc1C(F)(F)F [Compound 2, N-(4-((4-(4-((5-cyclopropyl-1H-pyrazol-3-yl)amino)pyrimidin-2-yl)piperazin-1-yl)methyl)phenyl)-2-(trifluoromethyl)-benzamide]
[1]
  average potency ratio (other SRC family kinases vs FYN): about 100
[1]; read-out: IC50, all other kinases examined of the SRC family
  IC50: > 100 nM
Pharmacokinetics in rats
  bioavailability: 51%
Pharmacokinetics in rats; read-out: AUC (0-24 h)
  AUC(0-t): 877 ng·h/mL
FLT-4
  inhibition at 0.1 µM: > 50%
HCK
  IC50: 3200 nM
CDK2
  inhibition at 0.1 µM: > 50%
[2]
  effect on more than 70% of the remaining kinases examined: practically ineffective
FYN
  IC50: 9 nM
[3]
  IC50: 190 nM
LCK
  IC50: 450 nM
